ChEMBL document CHEMBL5728311, “Benzyl phenyl ether derivative, preparation method therefor, and pharmaceutical composition and uses thereof” (2021)

Each molecule was assayed against Programmed cell death protein 1/Programmed cell death 1 ligand 1 (Homo sapiens, UniProt Q15116+Q9NZQ7) (assay: In Vitro Activity Assay: 1) Principle: PD-1 protein is with HIS tag, and PD-1 ligand PD-L1 is with hFc tag. Eu labeled anti-hFc antibody and XL665 labeled anti-HIS antibody are combined with the above two label proteins respectively. After laser excitation, energy can be transferred from donor Eu to receptor XL665, allowing XL665 to glow. […] Reagents should be dispensed in the following order. For 384-well white ELISA plate, 2 μl of diluent or target compound diluted with diluent was added to each well, and then 4 μl of PD-1 protein and 4 μl of PD-L1 protein were added per well, incubated for 15 min at room temperature; and 10 μl of a mixture of anti-Tag1-Eu3+ and anti-Tag2-XL665 was added per well and incubated for 1 h to 4 h at room temperature and the fluorescence signals at 665 nm and 620 nm were measured with an Envison instrument. HTRF rate=(665 nm/620 nm)[…]. 8-10 concentrations were detected for each compound and IC50 was calculated by Graphpad software.).
Sequence of Programmed cell death protein 1/Programmed cell death 1 ligand 1 (Q15116 whole entry): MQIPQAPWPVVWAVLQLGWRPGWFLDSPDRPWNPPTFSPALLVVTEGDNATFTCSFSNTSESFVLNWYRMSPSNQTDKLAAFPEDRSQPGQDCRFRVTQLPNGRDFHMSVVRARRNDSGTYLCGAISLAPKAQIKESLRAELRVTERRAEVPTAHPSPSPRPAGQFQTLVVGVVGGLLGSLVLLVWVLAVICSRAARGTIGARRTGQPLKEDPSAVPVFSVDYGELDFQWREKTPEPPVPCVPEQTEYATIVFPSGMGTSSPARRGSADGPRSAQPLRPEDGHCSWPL
Sequence of Programmed cell death protein 1/Programmed cell death 1 ligand 1 (Q9NZQ7 whole entry): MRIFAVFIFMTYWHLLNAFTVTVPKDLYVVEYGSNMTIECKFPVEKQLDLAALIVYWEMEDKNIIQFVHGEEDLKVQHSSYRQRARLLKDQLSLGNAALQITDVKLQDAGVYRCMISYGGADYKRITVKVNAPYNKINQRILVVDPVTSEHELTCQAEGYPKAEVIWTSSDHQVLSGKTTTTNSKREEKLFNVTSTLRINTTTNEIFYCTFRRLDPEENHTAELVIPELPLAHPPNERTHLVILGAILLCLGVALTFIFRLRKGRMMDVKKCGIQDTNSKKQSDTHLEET
Type: protein-complex assay

Compound | IC50
N#Cc1cccc(COc2cc(OCc3cccc(-c4ccccc4)c3Br)c(Cl)cc2CNCCO)c1 | 5.29 nM
CS(=O)(=O)NCCNCc1ccc(OCc2cccc(-c3ccccc3)c2Br)cc1OCc1cccc(C#N)c1 | 979 nM
N#Cc1cccc(COc2cc(OCc3cccc(-c4ccccc4)c3Br)ccc2CN2CCOCC2)c1 | 458 nM
